The source of these data is US11787805B2, “N-oxide inhibitors of NLRP3 inflammasome” (BioAge Labs, Inc., priority 2022, dated 2023).

Molecules are shown by their SMILES. Bounds are passed on as bounds.

One series can be described thus: Human Liver Microsome Stability Assay (HLM). The format is in vitro ADME. Particulars: human liver microsomes. The source says:
The stability of the N-oxide compounds provided herein was studied compared to analogs not having N-oxide. […] This enhanced metabolic stability corresponds to an extended half-life and duration of action when dosed in vivo.
(In general: Microsomes from liver hold many membrane-bound enzymes, among them those of drug oxidation.)
Take `CCOc1cc(C(=O)N(C)Cc2cncc3cn[nH]c23)ccc1-c1cccc(F)c1` [A]: the “HLM t1/2” value turned out to be 3.7 min.

The same series, now with this note: human, liver microsomes, read-out: HLM t1/2.
As for `CCOc1cc(C(=O)N(C)Cc2cncc3cn[nH]c23)ccc1-c1cccc(F)c1` [B], the half-life turned out to be 2 min. Take `CN(Cc1cncc2cn[nH]c12)C(=O)c1ccc(-c2cccc(F)c2)c(OC2CC2)c1` [C]: the half-life amounted to 4 min. For `CCOc1cc(C(=O)N(C)Cc2c[n+]([O-])cc3cn[nH]c23)ccc1-c1cccc(F)c1` [Compound 001], the half-life is over 145 min. With `CN(Cc1c[n+]([O-])cc2cn[nH]c12)C(=O)c1ccc(-c2cccc(F)c2)c(OC2CC2)c1` [Compound 004], the half-life was over 145 min.

Take `CN(Cc1cccc2cn[nH]c12)C(=O)c1ccc(-c2cccc(F)c2)c(OC2CC2)c1` [D]: the half-life amounted to 1.5 min.
